Results as given in US6500837B2, “Fused ring system containing indole as M4 selective aza-anthracene muscarinic receptor antagonists” (Warner-Lambert Company, priority 2000, dated 2002).
“And” between values parts separate entries of the source, which are not always exact repeats. Equal entries are not always repeated.

Assays:
Conditions in all cases: displacement of [3H]-NMS, membranes from transfected CHO cells; separate determinations in one cell
[1] = target: human muscarinic receptor subtype M3 (Hm3) (Homo sapiens, UniProt P20309); experiment: [3H]-NMS receptor binding in CHO cell membranes, Hm3
human muscarinic receptor subtype M3 (Hm3), sequence (P20309 whole entry): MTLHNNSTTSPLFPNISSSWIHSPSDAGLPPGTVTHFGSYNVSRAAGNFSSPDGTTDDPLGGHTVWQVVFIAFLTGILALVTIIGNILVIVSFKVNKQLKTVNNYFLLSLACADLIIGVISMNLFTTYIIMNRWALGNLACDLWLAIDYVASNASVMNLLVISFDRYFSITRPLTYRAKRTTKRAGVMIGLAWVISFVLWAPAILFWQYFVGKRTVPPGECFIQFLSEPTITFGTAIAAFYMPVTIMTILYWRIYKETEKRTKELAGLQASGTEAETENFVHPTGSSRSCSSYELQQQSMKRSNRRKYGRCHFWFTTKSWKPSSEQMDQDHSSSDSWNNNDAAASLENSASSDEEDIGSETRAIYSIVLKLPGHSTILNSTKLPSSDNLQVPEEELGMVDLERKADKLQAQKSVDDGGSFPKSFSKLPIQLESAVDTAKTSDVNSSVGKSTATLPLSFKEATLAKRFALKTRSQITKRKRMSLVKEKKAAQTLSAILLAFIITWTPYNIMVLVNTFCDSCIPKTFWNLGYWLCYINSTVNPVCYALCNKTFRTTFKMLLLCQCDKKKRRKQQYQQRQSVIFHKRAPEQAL
Protocol: (§1) The compounds of Formula I have shown potent binding affinity for muscarinic receptors and are thus useful as muscarinicing antagonists. […] The compounds are evaluated in standard assays used to measure muscarinic receptor binding. Specifically, the compounds are evaluated for their binding affinity toward five human muscarinic receptor subtypes (M1-M5) by the method of Dorje et al., J. Pharm. Exp. Ther., 1991;256:727-733, incorporated herein by reference. The binding is determined by measuring the displacement of [^3H]-NMS binding using membranes from transfected Chinese hamster ovary (CHO) cells. All compounds are tested two to four times with duplicate tubes (SEM is ≦10% in all cases).

[2] = target: T1, human muscarinic receptor subtype M1 (Hm1) (Homo sapiens, UniProt P11229); experiment: [3H]-NMS receptor binding in CHO cell membranes, Hm1
T1 sequence (P11229 1-460): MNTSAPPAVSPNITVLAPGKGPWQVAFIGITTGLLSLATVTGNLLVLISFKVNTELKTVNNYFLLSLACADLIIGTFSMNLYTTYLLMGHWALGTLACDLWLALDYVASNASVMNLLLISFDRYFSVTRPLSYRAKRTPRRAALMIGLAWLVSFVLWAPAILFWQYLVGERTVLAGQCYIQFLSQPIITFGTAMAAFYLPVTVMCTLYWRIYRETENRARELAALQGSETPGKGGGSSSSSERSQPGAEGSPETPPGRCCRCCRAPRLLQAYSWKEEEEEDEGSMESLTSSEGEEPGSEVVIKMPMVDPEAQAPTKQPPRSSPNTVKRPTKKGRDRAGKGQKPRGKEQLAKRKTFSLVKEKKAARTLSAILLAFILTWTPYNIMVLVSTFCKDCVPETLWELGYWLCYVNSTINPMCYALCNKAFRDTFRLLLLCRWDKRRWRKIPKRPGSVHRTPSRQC
Protocol: as §1

[3] = target: T2, human muscarinic receptor subtype M2 (Hm2) (Homo sapiens, UniProt P08172); experiment: [3H]-NMS receptor binding in CHO cell membranes, Hm2
T2 sequence (P08172 1-466): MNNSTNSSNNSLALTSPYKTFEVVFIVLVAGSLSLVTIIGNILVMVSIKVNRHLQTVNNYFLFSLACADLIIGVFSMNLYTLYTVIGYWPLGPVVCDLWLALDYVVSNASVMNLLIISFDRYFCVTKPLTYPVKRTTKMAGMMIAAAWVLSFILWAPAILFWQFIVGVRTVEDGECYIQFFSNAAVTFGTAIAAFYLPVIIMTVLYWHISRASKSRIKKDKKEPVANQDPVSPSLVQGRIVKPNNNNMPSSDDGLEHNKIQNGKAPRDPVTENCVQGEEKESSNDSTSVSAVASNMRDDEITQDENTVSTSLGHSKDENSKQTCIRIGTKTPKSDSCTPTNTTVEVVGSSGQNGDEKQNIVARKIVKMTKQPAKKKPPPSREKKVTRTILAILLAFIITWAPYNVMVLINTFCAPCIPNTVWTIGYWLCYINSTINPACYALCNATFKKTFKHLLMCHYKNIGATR
Protocol: as §1

[4] = target: T3, human muscarinic receptor subtype M4 (Hm4) (Homo sapiens, UniProt P08173); experiment: [3H]-NMS receptor binding in CHO cell membranes, Hm4
T3 sequence (P08173 1-479): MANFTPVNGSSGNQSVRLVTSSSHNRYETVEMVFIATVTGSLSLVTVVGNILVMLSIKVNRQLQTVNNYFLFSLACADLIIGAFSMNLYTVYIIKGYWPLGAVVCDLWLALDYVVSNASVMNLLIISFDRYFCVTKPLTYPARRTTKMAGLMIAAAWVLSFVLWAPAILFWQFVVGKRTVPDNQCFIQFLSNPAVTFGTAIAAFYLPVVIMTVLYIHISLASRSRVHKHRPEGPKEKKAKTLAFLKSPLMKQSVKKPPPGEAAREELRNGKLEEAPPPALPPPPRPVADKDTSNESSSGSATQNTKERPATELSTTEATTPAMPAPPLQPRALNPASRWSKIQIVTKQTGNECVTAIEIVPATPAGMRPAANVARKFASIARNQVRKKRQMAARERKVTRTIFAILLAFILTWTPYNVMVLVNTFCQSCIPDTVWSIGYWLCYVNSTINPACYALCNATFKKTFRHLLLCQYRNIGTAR
Protocol: as §1

[5] = target: T4, human muscarinic receptor subtype M5 (Hm5) (Homo sapiens, UniProt P08912); experiment: [3H]-NMS receptor binding in CHO cell membranes, Hm5
T4 sequence (P08912 1-532): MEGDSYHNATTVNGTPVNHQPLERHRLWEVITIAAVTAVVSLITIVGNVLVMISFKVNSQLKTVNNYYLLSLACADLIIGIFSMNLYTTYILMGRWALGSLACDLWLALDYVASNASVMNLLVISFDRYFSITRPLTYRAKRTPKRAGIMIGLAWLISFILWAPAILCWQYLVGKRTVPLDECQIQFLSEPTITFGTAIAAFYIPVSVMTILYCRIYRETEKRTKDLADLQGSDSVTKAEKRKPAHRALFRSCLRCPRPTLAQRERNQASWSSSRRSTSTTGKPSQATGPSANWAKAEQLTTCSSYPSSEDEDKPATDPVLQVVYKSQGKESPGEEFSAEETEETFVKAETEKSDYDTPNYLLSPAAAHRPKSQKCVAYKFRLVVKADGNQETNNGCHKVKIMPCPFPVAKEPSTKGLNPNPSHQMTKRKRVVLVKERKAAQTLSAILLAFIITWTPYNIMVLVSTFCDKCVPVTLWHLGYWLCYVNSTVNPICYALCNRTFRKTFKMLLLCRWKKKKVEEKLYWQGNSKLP
Protocol: as §1

SMILES | IC50 [1] | IC50 [2] | IC50 [3] | IC50 [4] | IC50 [5]
CCCc1[nH]c2cc(Br)c3c(c2c1C(=O)OCC)CN1CCc2cc(OC)ccc2C1C3 (stereo not shown) [Compound 2, 5-Bromo-9-methoxy-2-propyl-6,11,12,13-tetrahydro-3H6aH-3,12a-diaza-benzo[a]cyclopent[h]anthracene-1-carboxylic acid ethyl ester] | > 10 µM | 0.5 µM and 0.4 µM | 0.8 µM and 4 µM | 2 µM and 3 µM | 10 µM and 15 µM
CCOC(=O)c1c(C)[nH]c2cc(Br)c3c(c12)CN1CCc2cc(OC)ccc2C1C3 (stereo not shown) [Compound 1, 5-Bromo-9-methoxy-2-methyl-6,11,12,13-tetrahydro-3H,6aH-3,12a-diaza-benzo[a]cyclopent[h]anthracene-1-carboxylic acid ethyl ester] | > 10 µM and 20 µM | 0.4 µM | 3 µM | 3 µM and 0.6 µM | 5 µM and 4 µM
CCCc1[nH]c2ccc3c(c2c1C(=O)OCC)CN1CCc2cc(OC)ccc2C1C3 (stereo not shown) [Compound 4, 9-Methoxy-2-propyl-6,11,12,13-tetrahydro-3H6aH-3,12a-diaza-benzo[a]cyclopent[h]anthracene-1-carboxylic acid ethyl ester] | > 10 µM | > 10 µM | 20 µM and 15 µM | > 10 µM | –
CCOC(=O)c1c(C)[nH]c2ccc3c(c12)CN1CCc2cc(OC)ccc2C1C3 (stereo not shown) [Compound 3, 9-methoxy-2-methyl-6,11,12,13-tetrahydro-3H,6aH-3,12a-diaza-benzo[a]cyclopent[h]anthracene-1-carboxylic acid ethyl ester] | > 10 µM and 5 µM | > 10 µM and 25 µM | 25 µM | > 10 µM and 20 µM | 10 µM and 9 µM
